Among the data in US9738610B2, “Indazole derivatives and uses thereof” (Whitehead Institute for Biomedical Research, priority 2012, dated 2017) are IC50 values, retold here.

The assay relates to Hsp90. The experiment in a line: Hsp90 binning reporter assay. Format: cell-based. The note with it: Saccharomyces cerevisiae, read-out: Hsp90 pathway inhibition IC50. As to the method: Corning white, 384-well plates were obtained from Corning (Catalog No. 8867BC; Lot No. 22609019). Tropix Gal-Screen was obtained from Applied Biosystems (Catalog No. T2359; Lot No. 0903044).
SD Growth Media was obtained from MP Biomedical (Catalog No. 4027-012; Lot No. 119458). Complete Supplement minus adenine was obtained from Sunrise Science (Catalog No. 1029-100; Lot No. 070409). Deoxycorticosterone (DOC) steroid was obtained from Sigma. To prepare the assay media, 100 ml (20% (w/v) dextrose and 780 mg Complete Supplement) was added to 100 ml SD Growth Media. Water was added to a final volume of 1 liter, and the solution was filter sterilized.
For DOC media, 1 ml DOC was added to 100 ml SD-ADE media.
The following test strain was used in this study: Saccharomyces cerevisiae W303 reporter strain (ATCC 201238). […]
The OD 600 of 1 ml of culture in a cuvette was read using a standard optical density reader with growth medium as a background blank. […] Luminescence of the wells was read on a standard plate reader as a measure of relative fungal growth. Envision (Perkin Elmer) plate reader set-up: Top read; Luminescence filter (560 nm) at 0.1 seconds.
Potential inhibition of the Hsp90-based chaperone machinery was evaluated using yeast reporter assays involving the glucocorticoid hormone receptor and the tyrosine kinase, v-Src. […]
For orientation: In a reporter assay the amount or activity of a reporter protein is the signal.

Molecules are shown by their SMILES. pIC50: −log10 of the molar value.

As a reminder, the pIC50 is the negative decadic logarithm of the IC50, by convention in mol/L. Regarding `COC(=O)Cn1nc(-c2cccc(OC)c2)c2ccccc21` [Compound I-4, methyl 2-(3-(3-methoxyphenyl)-1H-indazol-1-yl)acetate], the negative logarithm of the IC50 (pIC50) is 5.38.
